# Results taken from paper PMC9775433 (Cancers, 2022).
# Several values for one entry are separate records, joined by “and”; a condition that tells them apart may be missing. Identical values can stand only once. Like-named read-outs stand apart in the source and are kept apart here.
# Columns and labels:
# TEX264 = system: TEX264; set-up: method as in earlier work; conditions: cited from earlier work
# MAP4K4 = system: MAP4K4; set-up: method as in earlier work; conditions: cited from earlier work
# CD3 = assay: Immunohistochemistry of tumor biopsies, CD3 (T-cell infiltration); assay type: in vivo, human; conditions: 10 paired tumor biopsies
# Protocol: (§1) Immunohistochemistry: Immunohistochemical staining was performed on 3–5 μm thick sections of the (freeze) tumor biopsies for CD3, CD31 and Ki67 according to standard methods (see Supplementary Data S2). Morphological characteristics were assessed in hematoxylin-eosin (H&E)-stained tissue sections. Evaluation of staining was performed by four investigators using light microscopy of serial tissue sections. […] Semi-quantification of CD31 staining was scored manually by a pathologist. The number of cells positive for CD3, CD31 was expressed as an estimated proportion of the total number of cells. […]
# (§2) Finally, staining was
# (§3) visualized with 3,3-diamino-benzidine-tetra hydrochloride (DAB), 0.3 mg/ml in 1 ml PBS
# (§4) with 0.3 % H2O2. All slides were counterstained with hematoxylin.
# refractory solid tumors [1] = assay: Phase I trial outcome (PFS, OS); assay type: in vivo, human; conditions: individual patient
# Protocol: All patients provided written informed consent before entering the study. The study was conducted in accordance with the Declaration of Helsinki and with the principles of the International Conference on Harmonization Guidelines for Good Clinical Practice. The study protocol was approved by the local institutional board and an independent Ethics Committee.
# Patients continued treatment until progression, intolerance, or withdrawal of consent. The primary outcomes of the phase I clinical trial were described previously.
# Efficacy was assessed in patients who completed at least two weeks of treatment. […] Statistical significance was set at p < 0.05. All statistical analyses were performed in SPSS, version 25.
# RASSF3 = system: RASSF3; set-up: method as in earlier work; conditions: cited from earlier work
# [2] = in vivo; cited from earlier work
# CLK1 = system: CLK1; set-up: method as in earlier work; conditions: cited from earlier work
# RASSF5 = system: RASSF5; set-up: method as in earlier work; conditions: cited from earlier work
# [3] = Skin drug concentration in skin biopsy at day 17 (LC-MS-MS); assay type: in vivo, human; conditions: individual patient; for concentration at 17 day: human, skin, oral, Skin - Sunitinib concentration
# Protocol: (§5) All tissue samples were immediately snap frozen (within 1 min) in liquid nitrogen and cryopreserved at −80 °C until the day of analysis.
# (§6) Tissue biopsies were weighed accurately before analysis. Tissue homogenate was prepared by using a mechanical homogenizer. The tumor tissue was homogenized with the precellys lysing kit (bertin instruments®) in the Roche MagNA lyzer®. […] Tissue homogenate samples were directly analyzed.
# (§7) Supplementary data S2 – Methods (Details)
# (§8) samples; using a validated liquid chromatography–tandem mass spectrometry (LC-MS-MS).
# (§9) The system consisted of an Acquity H‐Class UPLC system, coupled to a Xevo TQ‐S micro
# (§10) tandem mass spectrometer. […]
# Food effect cohort = assay type: in vivo, human; conditions: 700 mg Q2W, fed versus fasted
# FGFR-1 = system: FGFR-1; set-up: method as in earlier work; conditions: cited from earlier work
# TNIK = system: TNIK; set-up: method as in earlier work; conditions: cited from earlier work
# refractory solid tumors [4] = system: refractory solid tumors; set-up: method as in PMID 30586316; conditions: cited from earlier work
# Q6ZSR9 = system: Q6ZSR9; set-up: method as in earlier work; conditions: cited from earlier work
# LATS1 = system: LATS1; set-up: method as in earlier work; conditions: cited from earlier work
# [5] = cited from earlier work
# [6] = mice; cited from earlier work
# CD31 = assay: Immunohistochemistry of tumor biopsies, CD31 (microvessel density); assay type: in vivo, human; conditions: 10 paired tumor biopsies, day 17
# Protocol: as §1, §2, §3, §4
# [7] = Tumor drug concentration in tumor needle biopsy at day 17 (LC-MS-MS); assay type: in vivo, human; conditions: individual patient; for concentration at 17 day: human, tumor, oral, Tumor - Sunitinib concentration
# Protocol: as §5, §6, §7, §8, §9, §10
# Ki67 = assay: Immunohistochemistry of tumor biopsies, Ki67 (tumor cell proliferation); assay type: in vivo, human; conditions: 10 paired tumor biopsies, day 17
# Protocol: as §1, §2, §3, §4
# CSNK1D = system: CSNK1D; set-up: method as in earlier work; conditions: cited from earlier work
# [8] = standard daily schedule, three patients
smiles,measurement,setting,value
CCN(CC)CCNC(=O)c1c(C)[nH]c(/C=C2\C(=O)Nc3ccc(F)cc32)c1C [sunitinib],IC50,TEX264,990 nM
same,T cell infiltration (CD3 staining) after 17 days of treatment,CD3; baseline 8.6%,12.2%
same,OS,refractory solid tumors [1]; 200 mg O1W,119 days and 134 days
same,PFS,refractory solid tumors [1]; 200 mg O1W,77 days and 82 days
same,OS,refractory solid tumors [1]; 300 mg O2W,78 days and 76 days
same,PFS,refractory solid tumors [1]; 300 mg O2W,58 days and 61 days
same,OS,refractory solid tumors [1]; 400 mg O1W,26 days and 261 days and 817 days and 151 days and 132 days and 237 days and 169 days
same,PFS,refractory solid tumors [1]; 400 mg O1W,23 days and 239 days and 68 days and 51 days and 160 days
same,OS,refractory solid tumors [1]; 400 mg O2W,185 days and 23 days and 194 days
same,PFS,refractory solid tumors [1]; 400 mg O2W,57 days
same,OS,refractory solid tumors [1]; 500 mg O2W,257 days and 427 days
same,PFS,refractory solid tumors [1]; 500 mg O2W,57 days and 176 days and 54 days
same,OS,refractory solid tumors [1]; 600 mg O2W,353 days and 342 days
same,PFS,refractory solid tumors [1]; 600 mg O2W,56 days and 331 days and 93 days
same,OS,refractory solid tumors [1]; 700 mg O2W,86 days and 150 days and 428 days and 170 days and 91 days and 57 days and 142 days and 40 days and 526 days and 232 days and 125 days and 486 days and 400 days and 169 days and 74 days and 419 days and 148 days and 184 days and 333 days and 596 days and 93 days
same,PFS,refractory solid tumors [1]; 700 mg O2W,56 days and 77 days and 245 days and 170 days and 14 days and 57 days and 26 days and 168 days and 64 days and 60 days and 45 days and 334 days and 197 days and 318 days and 84 days
same,OS,refractory solid tumors [1]; 800 mg O2W,89 days and 32 days and 45 days and 243 days and 63 days and 62 days
same,PFS,refractory solid tumors [1]; 800 mg O2W,56 days and 194 days and 42 days
same,IC50,RASSF3,800 nM
same,apparent volume of distribution,[2],2230 L
same,IC50,RASSF5,1130 nM
same,Skin - Sunitinib concentration,[3]; 300 mg O1W,7444 µg/L and 1839 µg/L and 611 µg/L and 3502 µg/L and 629 µg/L and 305 µg/L and 1571 µg/L and 1582 µg/L and 2451 µg/L and 1993 µg/L and 5819 µg/L and 4222 µg/L and 1881 µg/L
same,Skin - Sunitinib concentration,[3]; 300 mg O2W,197 µg/L and 399 µg/L
same,Skin - Sunitinib concentration,[3]; 700 mg O2W,6449 µg/L and 157 µg/L and 494 µg/L and 2120 µg/L and 13415 µg/L and 375 µg/L and 1238 µg/L and 1247 µg/L and 792 µg/L and 614 µg/L and 455 µg/L and 393 µg/L and 276 µg/L and 13960 µg/L and 3537 µg/L and 896 µg/L and 2370 µg/L and 4779 µg/L and 1278 µg/L
same,concentration at 17 day,"[3]; 400 mg, 400 mg O1W",1500 ng/mL
same,concentration at 17 day,"[3]; 800 mg, 800 mg O2W",520 ng/mL
same,effect of food on oral uptake,Food effect cohort,did not affect
same,OS range,refractory solid tumors [4]; 300 mg Q1W,1.2–15 months
same,PFS range,refractory solid tumors [4]; 300 mg Q1W,0.7–11 months
same,median OS,refractory solid tumors [4]; 300 mg Q1W,3.1 months
same,median PFS,refractory solid tumors [4]; 300 mg Q1W,2.2 months
same,OS range,refractory solid tumors [4]; 700 mg Q2W,1.3−19.6 months
same,PFS range,refractory solid tumors [4]; 700 mg Q2W,0.5–11 months
same,median OS,refractory solid tumors [4]; 700 mg Q2W,4.9 months
same,median PFS,refractory solid tumors [4]; 700 mg Q2W,2.6 months
same,OS range,refractory solid tumors [4]; all patients,0.8–27 months
same,PFS range,refractory solid tumors [4]; all patients,0.5–11 months
same,median overall survival (OS),refractory solid tumors [4]; all patients,4.9 months
same,median progression free survival (PFS),refractory solid tumors [4]; all patients,2.5 months
same,"microvessel density (MVD), pre- versus on treatment biopsies",CD31,no significant differences
same,Tumor - Sunitinib concentration,[7]; 300 mg O1W,2373 µg/L and 19394 µg/L and 1332 µg/L and 2343 µg/L and 1738 µg/L and 9841 µg/L and 24517 µg/L and 25618 µg/L and 2008 µg/L and 18802 µg/L and 539 µg/L and 2318 µg/L
same,Tumor - Sunitinib concentration,[7]; 700 mg O2W,24802 µg/L and 2377 µg/L and 49083 µg/L and 16359 µg/L and 12244 µg/L and 8913 µg/L and 51914 µg/L and 2247 µg/L
same,concentration at 17 day,"[7]; 400 mg, 400 mg O2W",987 ng/mL
same,concentration at 17 day,"[7]; 800 mg, 800 mg O2W",228 ng/mL
